Measured values published in ChEMBL document CHEMBL4673345 (J Med Chem, 2020).
Active and inactive are the calls of the source. The rule behind the calls is not given here.

Assays:
[1] = Inhibition of ABCB1 in multidrug-resistant human SW620/Ad300 cells assessed as increase in reversal of resistance to paclitaxel-induced cytotoxicity by measuring paclitaxel IC50 pre-incubated for 4 hrs followed by paclitaxel addition and measured after 72 hrs by MTT assay (reference value: 4.23 +/- 0.6 uM)
SW-620 [2] = assay: Antitumor activity against human SW620/Ad300 cells xenografted in BALB/c mouse assessed as induction of tumor death by measuring nuclear pyknosis at 20 mg/kg/day, ig for 21 days by H and E staining based assay; assay type: functional, organism-based; settings: time 21.0 day
[3] = molecular target: T1, ATP-dependent translocase ABCB1 (Homo sapiens, UniProt P08183); assay: Stimulation of ABCB1 ATPase activity (unknown origin) assessed as increase in inorganic phosphate release at 5 to 45 uM incubated for 20 mins in presence of Mg-ATP by spectrophotometry; settings: dose 5-45 µM
T1 sequence (P08183 whole entry): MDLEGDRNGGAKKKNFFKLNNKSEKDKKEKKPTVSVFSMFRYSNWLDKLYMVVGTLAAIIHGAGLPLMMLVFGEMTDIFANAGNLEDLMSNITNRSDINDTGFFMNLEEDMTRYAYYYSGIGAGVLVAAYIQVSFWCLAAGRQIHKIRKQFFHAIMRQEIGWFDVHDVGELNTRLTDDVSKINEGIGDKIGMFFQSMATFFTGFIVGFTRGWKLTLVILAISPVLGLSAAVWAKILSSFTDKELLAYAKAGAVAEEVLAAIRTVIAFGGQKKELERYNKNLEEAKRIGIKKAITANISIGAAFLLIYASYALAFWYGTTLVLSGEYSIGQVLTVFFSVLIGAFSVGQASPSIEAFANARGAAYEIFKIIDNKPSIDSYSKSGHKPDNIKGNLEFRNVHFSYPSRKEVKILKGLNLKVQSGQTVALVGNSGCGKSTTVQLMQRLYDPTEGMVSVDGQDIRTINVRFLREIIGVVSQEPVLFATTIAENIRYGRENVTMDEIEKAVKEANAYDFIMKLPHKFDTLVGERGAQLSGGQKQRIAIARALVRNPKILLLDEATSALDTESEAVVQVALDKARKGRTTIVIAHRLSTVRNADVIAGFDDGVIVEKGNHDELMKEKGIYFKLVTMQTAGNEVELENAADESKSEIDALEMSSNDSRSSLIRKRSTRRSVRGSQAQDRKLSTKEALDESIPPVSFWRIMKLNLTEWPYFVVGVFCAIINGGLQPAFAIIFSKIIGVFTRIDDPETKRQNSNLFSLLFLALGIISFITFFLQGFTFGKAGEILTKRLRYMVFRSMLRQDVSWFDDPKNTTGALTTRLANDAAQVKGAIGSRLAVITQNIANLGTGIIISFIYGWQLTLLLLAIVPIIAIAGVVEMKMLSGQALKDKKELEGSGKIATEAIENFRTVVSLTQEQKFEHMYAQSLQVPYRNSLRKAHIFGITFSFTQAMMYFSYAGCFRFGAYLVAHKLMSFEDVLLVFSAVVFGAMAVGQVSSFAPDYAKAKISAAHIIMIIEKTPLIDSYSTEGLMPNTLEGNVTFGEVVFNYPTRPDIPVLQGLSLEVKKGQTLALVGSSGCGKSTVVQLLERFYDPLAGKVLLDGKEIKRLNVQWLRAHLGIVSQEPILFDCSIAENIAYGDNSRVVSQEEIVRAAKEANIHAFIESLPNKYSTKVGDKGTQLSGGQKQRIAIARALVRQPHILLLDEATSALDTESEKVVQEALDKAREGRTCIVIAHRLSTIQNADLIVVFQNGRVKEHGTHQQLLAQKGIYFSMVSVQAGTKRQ

SW-620 [4] = assay: Effect on ABCB1 subcellular localization in human SW620/Ad300 cells at 20 uM incubated for 72 hrs by Western blotting analysis; assay type: functional, cell-based
SW-620 [5] = assay: Antitumor activity against human SW620/Ad300 cells xenografted in BALB/c mouse assessed as reduction in tumor volume at 20 mg/kg/day, ig for 21 days; assay type: functional, organism-based; settings: time 21.0 day
[6] = Reversal of resistance to paclitaxel-induced cytotoxicity in human KB-3-1 cells assessed as reduction in paclitaxel IC50 at 20 uM pre-incubated for 4 hrs followed by paclitaxel addition and measured after 72 hrs by MTT assay; assay type: functional; settings: time 76 hrs
SW-620 [7] = assay: Potentiation of PTX-induced antitumor activity against human SW620/Ad300 cells xenografted in BALB/c mouse assessed as reduction in tumor volume at 20 mg/kg/day, ig for 21 days relative to PTX alone; assay type: functional, organism-based; settings: time 21.0 day
SW-620 [8] = assay: Inhibition of [3H]PTX efflux in human SW620 cells at 20 uM pre-incubated for 4 hrs followed by PTX addition and measured after 2 hrs by liquid scintillation counting analysis; assay type: functional, cell-based; settings: time 6.0 hrs
[9] = molecular target: Multidrug resistance-associated protein 1 (Homo sapiens, UniProt P33527); assay: Stabilization of ABCC1 in human SW620/Ad300 cells assessed as inhibition of high temperature-induced ABCB1 protein degradation at 200 uM incubated for 30 mins by cellular thermal shift assay; assay type: cell-based; settings: sw-620, 0.5 h
Multidrug resistance-associated protein 1, sequence (P33527 whole entry): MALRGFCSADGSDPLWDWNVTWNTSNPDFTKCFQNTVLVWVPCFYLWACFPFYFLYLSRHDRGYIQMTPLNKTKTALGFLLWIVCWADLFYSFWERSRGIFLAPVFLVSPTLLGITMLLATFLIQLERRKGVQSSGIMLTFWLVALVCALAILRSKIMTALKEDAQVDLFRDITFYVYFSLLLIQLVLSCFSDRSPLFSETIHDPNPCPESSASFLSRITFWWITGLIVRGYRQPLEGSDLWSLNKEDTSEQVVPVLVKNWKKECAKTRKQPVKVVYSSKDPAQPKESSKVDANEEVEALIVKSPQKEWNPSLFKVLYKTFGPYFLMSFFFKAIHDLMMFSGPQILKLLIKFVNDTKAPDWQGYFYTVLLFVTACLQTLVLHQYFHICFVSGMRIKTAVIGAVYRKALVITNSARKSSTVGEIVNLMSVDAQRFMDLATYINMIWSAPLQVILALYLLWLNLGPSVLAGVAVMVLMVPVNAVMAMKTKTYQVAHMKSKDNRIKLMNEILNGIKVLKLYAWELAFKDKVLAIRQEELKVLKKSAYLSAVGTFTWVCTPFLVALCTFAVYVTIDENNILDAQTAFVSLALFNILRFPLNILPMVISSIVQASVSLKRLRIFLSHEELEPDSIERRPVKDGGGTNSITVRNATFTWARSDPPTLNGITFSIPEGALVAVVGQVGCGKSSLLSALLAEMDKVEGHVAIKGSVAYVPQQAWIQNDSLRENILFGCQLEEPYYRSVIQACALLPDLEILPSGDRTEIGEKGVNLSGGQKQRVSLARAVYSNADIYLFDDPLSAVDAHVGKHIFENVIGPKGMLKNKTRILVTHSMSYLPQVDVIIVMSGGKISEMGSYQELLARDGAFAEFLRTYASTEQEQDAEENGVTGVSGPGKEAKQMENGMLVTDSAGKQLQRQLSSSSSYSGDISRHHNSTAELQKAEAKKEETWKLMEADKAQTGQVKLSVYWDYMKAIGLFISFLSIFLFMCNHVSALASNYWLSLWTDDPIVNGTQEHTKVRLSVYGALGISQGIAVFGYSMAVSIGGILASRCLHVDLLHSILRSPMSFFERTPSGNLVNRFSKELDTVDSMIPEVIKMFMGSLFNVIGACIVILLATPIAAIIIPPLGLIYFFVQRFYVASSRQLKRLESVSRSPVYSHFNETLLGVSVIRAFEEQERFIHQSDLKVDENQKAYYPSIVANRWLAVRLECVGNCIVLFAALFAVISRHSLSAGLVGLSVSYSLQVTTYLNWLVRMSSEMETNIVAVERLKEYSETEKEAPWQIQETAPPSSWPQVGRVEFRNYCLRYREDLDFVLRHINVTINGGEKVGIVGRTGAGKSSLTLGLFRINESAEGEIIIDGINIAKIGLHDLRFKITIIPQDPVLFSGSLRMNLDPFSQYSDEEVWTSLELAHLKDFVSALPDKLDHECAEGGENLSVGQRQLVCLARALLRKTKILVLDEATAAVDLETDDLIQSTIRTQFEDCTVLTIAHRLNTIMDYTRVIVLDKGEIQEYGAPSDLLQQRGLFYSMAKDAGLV

[10] = Reversal of resistance to paclitaxel-induced cytotoxicity in HEK293 cells assessed as reduction in paclitaxel IC50 at 10 uM pre-incubated for 4 hrs followed by paclitaxel addition and measured after 72 hrs by MTT assay; assay type: functional, Homo sapiens; settings: time 76 hrs
[11] = Reversal of resistance to paclitaxel-induced cytotoxicity against human SW620 cells by measuring reduction in paclitaxel IC50 at 20 uM pre-incubated for 4 hrs followed by paclitaxel addition and measured after 72 hrs by MTT assay; assay type: functional, SW-620; settings: time 76 hrs
SW-620 [12] = assay: Antitumor activity against human SW620/Ad300 cells xenografted in BALB/c mouse assessed as induction of tumor apoptosis by measuring nuclear pyknosis at 20 mg/kg/day, ig for 21 days by TUNEL assay; assay type: functional, organism-based; settings: time 21.0 day
Cytochrome P450 3A4 = Cytochrome P450 3A4 (Homo sapiens, UniProt P08684); assay: Activation of CYP3A4 in human liver microsomes at 30 uM incubated for 10 mins in presence of CYP3A4 substrate/NADP+ by fluorescence based assay; assay type: ADME
Cytochrome P450 3A4, sequence (P08684 whole entry): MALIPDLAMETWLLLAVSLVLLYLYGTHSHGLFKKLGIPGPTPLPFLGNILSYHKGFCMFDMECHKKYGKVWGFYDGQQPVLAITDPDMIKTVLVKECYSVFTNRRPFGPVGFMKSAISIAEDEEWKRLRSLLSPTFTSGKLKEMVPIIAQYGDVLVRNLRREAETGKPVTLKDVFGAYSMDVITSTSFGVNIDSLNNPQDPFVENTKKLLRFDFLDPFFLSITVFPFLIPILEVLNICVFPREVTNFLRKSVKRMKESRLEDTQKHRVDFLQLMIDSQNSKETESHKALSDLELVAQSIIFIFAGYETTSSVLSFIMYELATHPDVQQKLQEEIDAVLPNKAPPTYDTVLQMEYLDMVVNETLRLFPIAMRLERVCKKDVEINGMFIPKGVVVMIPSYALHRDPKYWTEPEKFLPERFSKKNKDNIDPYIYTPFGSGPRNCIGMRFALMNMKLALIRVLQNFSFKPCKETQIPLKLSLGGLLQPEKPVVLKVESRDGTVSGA

SW-620 [13] = assay: Potentiation of PTX-induced antitumor activity against human SW620/Ad300 cells xenografted in BALB/c mouse assessed as reduction in tumor weight at 20 mg/kg/day, ig for 21 days relative to PTX alone; assay type: functional, organism-based; settings: time 21.0 day
SW-620 [14] = assay: Effect on ABCB1 protein expression in human SW620/Ad300 cells at 20 uM incubated for 72 hrs by Western blotting analysis; assay type: functional, cell-based
CYP3A4 = CYP3A4 (Homo sapiens, UniProt P08684); assay: Activation of CYP3A4 in human liver microsomes at 20 uM after 30 mins in presence of CYP3A4 substrate/NADP+ by fluorescence based assay; assay type: ADME; settings: read-out: FC
CYP3A4, sequence (P08684 whole entry): as above

[15] = Toxicity in BALB/c mouse xenografted with human SW620/Ad300 cells assessed as induction of liver injury at 20 mg/kg/day, ig by H and E staining based assay; assay type: organism-based; settings: in vivo, po
[16] = Reversal of resistance to paclitaxel-induced cytotoxicity in HEK293 cells assessed as reduction in paclitaxel IC50 at 20 uM pre-incubated for 4 hrs followed by paclitaxel addition and measured after 72 hrs by MTT assay; assay type: functional, Homo sapiens; settings: time 76 hrs
[17] = Toxicity in BALB/c mouse xenografted with human SW620/Ad300 cells assessed as effect on body weight changes at 20 mg/kg/day, ig; assay type: organism-based; settings: in vivo, po
SW-620 [18] = assay: Effect on intracellular PTX concentration in human SW620 cells at 20 uM pre-incubated for 4 hrs followed by PTX addition and measured after 2 hrs by liquid scintillation counting analysis; assay type: functional, cell-based; settings: time 6.0 hrs
[19] = Reversal of resistance to paclitaxel-induced cytotoxicity in human KB-3-1 cells assessed as reduction in paclitaxel IC50 at 10 uM pre-incubated for 4 hrs followed by paclitaxel addition and measured after 72 hrs by MTT assay; assay type: functional; settings: time 76 hrs
[20] = molecular target: T1, ATP-dependent translocase ABCB1; assay: Stabilization of ABCB1 in human SW620/Ad300 cells assessed as inhibition of high temperature-induced ABCB1 protein degradation at 200 uM incubated for 30 mins by cellular thermal shift assay; assay type: cell-based; settings: sw-620, 0.5 h
[21] = Reversal of resistance to paclitaxel-induced cytotoxicity against human SW620 cells by measuring reduction in paclitaxel IC50 at 10 uM pre-incubated for 4 hrs followed by paclitaxel addition and measured after 72 hrs by MTT assay; assay type: functional, SW-620; settings: time 76 hrs
[22] = Toxicity in BALB/c mouse xenografted with human SW620/Ad300 cells assessed as induction of mortality at 20 mg/kg/day, ig; assay type: organism-based; settings: in vivo, po
[23] = Toxicity in human SW-620/Ad300 cells assessed as cell viability at 20 uM incubated for 72 hrs by MTT assay; assay type: cell-based; settings: read-out: Activity
SW-620 [24] = settings: Homo sapiens, dose 6.0 mg/kg/day, time 21.0 day
SW-620 [25] = assay: Effect on intracellular PTX concentration in human SW620 cells at 4 uM pre-incubated for 4 hrs followed by PTX addition and measured after 2 hrs by liquid scintillation counting analysis; assay type: functional, cell-based; settings: time 6.0 hrs

N#Cc1c(Nc2cccc(Cl)c2)nc(SCC(=O)NC(=O)Nc2ccccn2)nc1-c1ccccc1
IC50 [1]: 5000 nM

Cc1cc(Nc2c(F)cccc2F)n2nc(SCc3nc4ccccc4[nH]3)nc2n1
IC50 [1]: 790 nM

Cc1cc(Nc2ccc(F)cc2)n2nc(SCc3nc4ccccc4[nH]3)nc2n1
Activity (SW-620 [2]): Active
fold change (FC) [3]: 2.5
Activity (SW-620 [4]): inactive
TGI (SW-620 [5]): inactive
fold change (FC) [6]: 1.52
TGI (SW-620 [7]): Active
inhibition (SW-620 [8]): Active
Activity [9]: Not Active
fold change (FC) [10]: 1.3
fold change (FC) [11]: 1.5
Activity (SW-620 [12]): Active
Activity (Cytochrome P450 3A4): Active
TGI (SW-620 [13]): Active
Activity (SW-620 [14]): inactive
fold induction at 0.5 h, 20 µM (CYP3A4): 1.06
Activity [15]: Non-Toxic
fold change (FC) [16]: 1.29
Activity [17]: Non-Toxic
Activity (SW-620 [18]): inactive
fold change (FC) [19]: 1.5
Activity [20]: Active
fold change (FC) [21]: 1.05
Activity [22]: Non-Toxic

Cc1cc(Nc2ccc(F)cc2)n2ncnc2n1
viability at 72 h, 20 µM [23]: 93.2%

Cc1cc(Nc2ccccc2)n2nc(SCc3nc4ccccc4[nH]3)nc2n1
IC50 [1]: 46 nM

Cc1ccc(CSc2nc3nc(C)cc(Nc4ccc(F)cc4)n3n2)cc1
IC50 [1]: 2040 nM

Cc1cc(Nc2cc(F)c(F)cc2F)n2nc(SCc3nc4ccccc4[nH]3)nc2n1
IC50 [1]: 260 nM

COc1ccc(CCN(C)CCCC(C#N)(c2ccc(OC)c(OC)c2)C(C)C)cc1OC (stereo not given)
TGI (SW-620 [24]): Active
Activity (SW-620 [25]): inactive

Cc1cc(Nc2ccc(O)c(Cl)c2)n2nc(SCc3nc4ccccc4[nH]3)nc2n1
IC50 [1]: 3220 nM

Cc1ccccc1Nc1nc(SCc2cn(Cc3ccc(Cl)cc3)nn2)nc(-c2ccccc2)c1C#N
IC50 [1]: 36000 nM

CCc1cc(Nc2ccc(F)cc2)n2nc(SCc3ccccc3)nc2n1
IC50 [1]: 1610 nM

COc1ccc(CSc2nc3nc(C)cc(Nc4ccc(F)cc4)n3n2)cc1
IC50 [1]: 1930 nM
